Test results taken from patent US20130261146A1, “NITRIC OXIDE AND ITS BIOMEDICAL SIGNIFICANCE” (The Research Foundation of State University of New York, priority 2010, published 2013).

Key:
[1] = system: E. coli bacteria; assay: Inhibition of bacterial growth in culture; format: cell-based; settings: E. coli incubated 5 and 24 hours at 37° C, streaked on LB-agar overnight
Protocol: Example 9 illustrates the anti-microbial effects of extracts including the active chemical agents on cells. A dried, powdered, formulation of a 1:1 mixture of the wheat grass extract and white willow bark extract prepared in Example 1 above was tested for its ability to inhibit bacterial growth in culture. The formulation was reconstituted in 10 ml of LB broth (Amersham Biosciences, Inc.). The broth was then inoculated with E. coli bacteria and incubated for 5 and 24 hours at 37° C. 20 μl of the cultures were streaked on LB-agar plates and incubated overnight at 37° C. […] An additional control experiment was conducted with the known antibacterial agent, SNAP. One μg/ml SNAP was added to LB broth. The broth was then inoculated with E. coli bacteria and incubated for 5 and 24 hours at 37° C. 20 μl of the cultures were streaked on LB-agar plates and incubated overnight at 37° C. Bacterial growth was decreased in the SNAP culture at 5 and 24 hours, as compared to the control.

[2] = system: SK-N-MC (ATCC # HBT-10) cells; assay: NO determination of SK-N-MC cells treated with plant extractions; format: cell-based; settings: 6 mg of crude extraction
Protocol: Employing the isolation and purification techniques described above, a variety of herbaceous plants were analyzed for their ability to release cNOS—derived nitric oxide in the pedal ganglia and in publicly available SK-N-MC (ATCC # HBT-10) and PC-12 (ATCC # CRL 1721) cells. In Table I, a plus sign indicates detection of at least 1 nM nitric oxide. […] In Table II, results in the SK-N-MC cell line are set forth; the concentration of plant material used and the quantity of NO detected is indicated. […] In Table III, results are set forth for the identical procedures performed using the ganglia cell line. The types of plant materials employed are indicated, for example flowers, leaves, roots, rhizomes, stems, bark. Where not specified, leaves were employed.

Compound | bacterial growth versus control (LB broth alone) [1] | Results (nM), NO determination of SK-N-MC cells [2] [nM]
CC(=O)NC(C(=O)O)C(C)(C)SN=O (racemic) [SNAP, S-nitroso-N-acetyl-DL-penicillamine] | decreased | –
O=c1c(O)c(-c2ccc(O)c(O)c2)oc2cc(O)cc(O)c12 [Quercetine] | – | 14
